{"source": "patent US20100285038A1", "about": "“Factor Involved in Metastasis and Uses Thereof” (priority 2002, published 2010)", "key": {"PRF1 protein": {"system": "PRF1 protein", "experiment": "Western blot analysis of PRF1 protein expression in PC-3 cells", "format": "cell-based, human", "settings": "PC-3 cells; after 72 and 96 h; DMSO as control (FIG. 9A)", "protocol": "A polyclonal antibody was generated against PRF1 using standard techniques. The polyclonal antibody thus obtained was tested for its specificity for PRF1. For that purpose, cell lysates from PC-3 cells treated with PRF1 specific antisense molecules, more particularly gene blocks, or mismatches thereof and cells transfected with expression plasmides for recombinant HA-tagged PRF1 were prepared. The lysates were analysed by Western blot analysis using the polyclonal antibody and the results are depicted in FIG. 8 A.\n(§1) To investigate whether PI 3-kinase activity has an impact on PRF1 protein expression, PC-3 cells were treated either with LY294002 or with DMSO as control. Analysis was performed by Western Blot analysis using the polyclonal antibody as detection means for PRF1 protein. Apart from PRF1 protein, also expression of Akt and phosphorylated Akt (P*Akt) was monitored using respective specific antibodies. Additionally, the expression of p110α and p85 was monitored.\nTo investigate whether the expression of PRF1 at the protein level would also be dependent on Akt (PKB) activity and HIF1α activity PC-3 cells were treated with Akt specific antisense molecules. More particularly, two antisense molecules, designated Akt1-GB and Akt2-molecule were used with the readout being the same as discussed in connection with FIG. 9, whereby, additionally, the HIF1α protein expression was monitored using a commercially available protein G-purified polyclonal antibody (R&DSystems, Lot Number: IUGO13071).\nThe same experiment using the same markers for monitoring except Akt and P*-Akt was carried out with cells grown under hypoxic conditions which was realized by treating the cells with CoCl2. Two different forms of antisense molecules, namely HIF1α-GB66 and HIF1α-GB67 were used and respective mismatches used as controls.\nA lane of the Blot represents the cell lysate of the cells shown in the corresponding photograph. As a read-out, p110 alpha and p85 are shown as loading control and the component of the PI-3K pathway investigated, i.e. AKT, monitored as P*AKT, HIF1 alpha and PRF1."}, "[1]": {"system": "Akt and phosphorylated Akt (P*Akt)", "experiment": "Western blot analysis of Akt and phosphorylated Akt in PC-3 cells", "format": "cell-based, human", "settings": "DMSO as control (FIG. 9A)", "protocol": "as §1"}}}
{"compound": "O=c1cc(N2CCOCC2)oc2c(-c3ccccc3)cccc12", "note": "[LY294002, 2-(4-morpholinyl)-8-phenylchromone]", "values": [{"measurement": "PRF1 protein expression", "setting": "PRF1 protein", "value": "down regulated"}, {"measurement": "Akt and phosphorylated Akt", "setting": "[1]", "value": "down regulated"}]}
